Assays:
Assay type in all cases: in vivo
[1] = test system: cocklebur (Xanthium pensylvanicum); test: Preemergence herbicidal activity, cocklebur; settings: Xanthium strumarium, pre-emergence, 336 h, 2 lb/A
In short: (§1)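 Compound in acetone/water sprayed on soil flats at 50 gal/acre carrier volume, at rates given in lb/A. Preemergence: applied right after planting; postemergence: applied two weeks after germination. Scored about two weeks later as average percent of plants killed.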

[2] = test system: marigold (Tagetes spp.); test: Preemergence herbicidal activity, marigold; settings: pre-emergence, 336 h, 2 lb/A
In short: as §1

[3] = test system: morningglory (Ipomoca spp.); test: Preemergence herbicidal activity, morningglory; settings: Ipomoea, pre-emergence, 336 h, 2 lb/A
In short: as §1

[4] = test system: tomato (Lycopersicon esculentum); test: Preemergence herbicidal activity, tomato; settings: Solanum lycopersicum, pre-emergence, 336 h; Pre, 2 lb/A
In short: as §1

[5] = test system: velvetleaf (Abutilon theophrasti); test: Preemergence herbicidal activity, velvetleaf; settings: Abutilon theophrasti, pre-emergence, 336 h; Pre, 2 lb/A
In short: as §1

[6] = test system: barnyardgrass (Echinochloa crusgalli); test: Preemergence herbicidal activity, barnyardgrass; settings: Echinochloa crus-galli, pre-emergence, 336 h; Pre, 2 lb/A
In short: (§2)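 Control of the weed species is the read-out, following spray application at a given rate in lb/A. Flats of seeded soil received treatment either directly upon planting or, for postemergence, two weeks after seedlings emerged. Spray carrier was aqueous acetone at 50 gallons per acre equivalent.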

[7] = test system: downybrome (Bromus tectorum); test: Preemergence herbicidal activity, downybrome; settings: Bromus tectorum, pre-emergence, 336 h, Pre, 2 lb/A
In short: as §1

[8] = test system: foxtail (Setaria spp.); test: Preemergence herbicidal activity, foxtail; settings: Setaria, pre-emergence, 336 h; Pre, 2 lb/A
In short: as §1

[9] = test system: yellow nutsedge (Cyperus esculentus); test: Preemergence herbicidal activity, yellow nutsedge; settings: Cyperus, pre-emergence, 336 h, 2 lb/A
In short: as §1

[10] = test system: wild oats (Avena fatua); test: Preemergence herbicidal activity, wild oats; settings: Avena fatua, pre-emergence, 336 h, Pre, 2 lb/A; read-out: % control, Wild oat
In short: as §1

[11] = test system: cocklebur (Xanthium pensylvanicum); test: Postemergence herbicidal activity, cocklebur; settings: Xanthium strumarium, post-emergence, 336 h, 2 lb/A
In short: as §1

[12] = test system: marigold (Tagetes spp.); test: Postemergence herbicidal activity, marigold; settings: post-emergence, 336 h, 2 lb/A
In short: as §1

[13] = test system: morningglory (Ipomoca spp.); test: Postemergence herbicidal activity, morningglory; settings: Ipomoea, post-emergence, 336 h, 2 lb/A
In short: as §1

[14] = test system: tomato (Lycopersicon esculentum); test: Postemergence herbicidal activity, tomato; settings: Solanum lycopersicum, post-emergence, 336 h, Post, 2 lb/A
In short: as §1

[15] = test system: velvetleaf (Abutilon theophrasti); test: Postemergence herbicidal activity, velvetleaf; settings: Abutilon theophrasti, post-emergence, 336 h, 2 lb/A
In short: as §2

[16] = test system: barnyardgrass (Echinochloa crusgalli); test: Postemergence herbicidal activity, barnyardgrass; settings: Echinochloa crus-galli, post-emergence, 336 h; Post, 2 lb/A
In short: as §2

[17] = test system: downybrome (Bromus tectorum); test: Postemergence herbicidal activity, downybrome; settings: Bromus tectorum, post-emergence, 336 h, Post, 2 lb/A
In short: as §1

[18] = test system: foxtail (Setaria spp.); test: Postemergence herbicidal activity, foxtail; settings: Setaria, post-emergence, 336 h, Post, 2 lb/A
In short: as §1

[19] = test system: yellow nutsedge (Cyperus esculentus); test: Postemergence herbicidal activity, yellow nutsedge; settings: Cyperus, post-emergence, 336 h, 2 lb/A
In short: as §1

[20] = test system: wild oats (Avena fatua); test: Postemergence herbicidal activity, wild oats; settings: Avena fatua, post-emergence, 336 h, Post, 2 lb/A; read-out: % control, Wild oat
In short: as §1

Compound	pest or weed control at 2241.7 g/ha [1] [%]	pest or weed control at 2241.7 g/ha [2] [%]	pest or weed control at 2241.7 g/ha [3] [%]	pest or weed control at 2241.7 g/ha [4] [%]	pest or weed control at 2241.7 g/ha [5] [%]	pest or weed control at 2241.7 g/ha [6] [%]	pest or weed control at 2241.7 g/ha [7] [%]	pest or weed control at 2241.7 g/ha [8] [%]	pest or weed control at 2241.7 g/ha [9] [%]	pest or weed control at 2241.7 g/ha [10] [%]	pest or weed control at 2241.7 g/ha [11] [%]	pest or weed control at 2241.7 g/ha [12] [%]	pest or weed control at 2241.7 g/ha [13] [%]	pest or weed control at 2241.7 g/ha [14] [%]	pest or weed control at 2241.7 g/ha [15] [%]	pest or weed control at 2241.7 g/ha [16] [%]	pest or weed control at 2241.7 g/ha [17] [%]	pest or weed control at 2241.7 g/ha [18] [%]	pest or weed control at 2241.7 g/ha [19] [%]	pest or weed control at 2241.7 g/ha [20] [%]
CCOC(=O)C(C)Oc1ccc(Oc2ccc(C(F)(F)F)cc2)cc1 (stereo not drawn) [Example 27]	0	0	0	0	0	100	99	100	0	99	70	100	95	60	40	100	100	100	0	100
CCOC(=O)C(Oc1ccc(Oc2ccc(C(F)(F)F)cc2Cl)cc1)C(C)C (stereo not drawn) [Example 28]	0	0	70	0	0	95	30	90	0	0	0	0	0	0	0	60	20	99	0	60
CC(Oc1ccc(Oc2ccc(C(F)(F)F)cc2)cc1)C(=O)O (stereo not drawn) [Example 29]	0	0	0	0	0	100	99	100	0	95	0	30	0	30	0	100	80	100	0	100
CCOC(=O)C=CCOc1ccc(Oc2ccc(C(F)(F)F)cc2Cl)cc1 [Example 30]	0	0	0	0	0	60	0	60	0	0	0	0	0	30	0	0	0	100	0	30
CC(Oc1ccc(Oc2ccc(C(F)(F)F)cc2Cl)cc1)C(=O)OCCN(C)C (stereo not drawn) [Example 31]	0	0	70	0	0	100	30	100	0	40	60	40	80	90	80	100	100	100	0	99
CCCOC(=O)C(C)Oc1ccc(Oc2ccc(C(F)(F)F)cc2Cl)cc1 (stereo not drawn) [Example 32]	0	0	0	0	0	100	80	100	0	80	0	20	0	30	30	100	100	100	0	100
CC(C)COC(=O)C(C)Oc1ccc(Oc2ccc(C(F)(F)F)cc2Cl)cc1 (stereo not drawn) [Example 33]	0	0	0	0	0	99	90	100	0	90	0	0	0	0	0	100	100	100	0	100
CCC(C)OC(=O)C(C)Oc1ccc(Oc2ccc(C(F)(F)F)cc2Cl)cc1 (stereo not drawn) [Example 34]	0	0	0	0	0	100	95	100	0	80	0	0	0	0	0	100	99	100	0	100
CC(Oc1ccc(Oc2ccc(C(F)(F)F)cc2Cl)cc1)C(=O)OC(C)(C)C (stereo not drawn) [Example 35]	0	0	0	0	0	99	0	100	0	0	0	0	0	0	0	60	0	100	0	0

— US4335249A, “Herbicidal diphenyl ethers, sulfides, sulfoxides and sulfones” (Rohm and Haas Company, priority 1976, dated 1982)
